# Data as given in patent publication US20220259558A1, “METHODS FOR OBTAINING EYE FIELD PROGENITOR CELLS FROM HUMAN PLURIPOTENT STEM CELLS” (Novo Nordisk A/S, priority 2019, published 2022).
# B1: DKK2: Dickkopf WNT Signaling Pathway Inhibitor 2, recombinant protein (protein, UniProt Q9UBU2 34-259, looked up)
# Dickkopf-related protein 2: KLNSIKSSLGGETPGQAANRSAGMYQGLAFGGSKKGKNLGQAYPCSSDKECEVGRYCHSPHQGSSACMVCRRKKKRCHRDGMCCPSTRCNNGICIPVTESILTPHIPALDGTRHRDRNHGHYSNHDLGWQNLGRPHTKMSHIKGHEGDPCLRSSDCIEGFCCARHFWTKICKPVLHQGEVCTKQRKKGSHGLEIFQRCDCAKGLSCKVWKDATYSSKARLHVCQKI
# B2: Activin A: Recombinant protein (R&D systems/Peprotech) (protein, UniProt P08476 311-426, looked up)
# Inhibin beta A chain: GLECDGKVNICCKKQFFVSFKDIGWNDWIIAPSGYHANYCEGECPSHIAGTSGSSLSFHSTVINHYRMRGHSPFANLKSCCVPTKLRPMSMLYYDDGQNIIKKDIQNMIVEECGCS
# modifications: Inhibin beta A chain
# B3: BMP4: member of the BMP family compared to BMP5 (protein, UniProt P12644 293-408, looked up)
# Bone morphogenetic protein 4: SPKHHSQRARKKNKNCRRHSLYVDFSDVGWNDWIVAPPGYQAFYCHGDCPFPLADHLNSTNHAIVQTLVNSVNSSIPKACCVPTELSAISMLYLDEYDKVVLKNYQEMVVEGCGCR
# B4: BMP7: member of the BMP family compared to BMP5 (protein, UniProt P18075 293-431, looked up)
# Bone morphogenetic protein 7: STGSKQRSQNRSKTPKNQEALRMANVAENSSSDQRQACKKHELYVSFRDLGWQDWIIAPEGYAAYYCEGECAFPLNSYMNATNHAIVQTLVHFINPETVPKPCCAPTQLNAISVLYFDDSSNVILKKYRNMVVRACGCH
# What was measured:
# hESC [1] = experiment: RNA (gene) expression analysis of differentiated hESC, real-time PCR; assay type: cell-based, human; settings: for induction of gene expression of markers of eye field progenitor cells with a RPE progenitor cell identity: comparison of BMPs, day 7-21, with CHIR99021 day 12-21, single SMAD inhibition
# Procedure: The graphs indicate the cycle threshold (CT) values from real-time polymerase chain reaction (PCR). Differentiated cells with BMP5 are collected at day 21 and RNA extracted, converted to cDNA and RNA expression analyses performed. hESC are used as comparison and CT values are inversely proportional to mRNA level.
# RNA expression of RPE progenitor cell-related genes was quantified. Note that 200 ng/ml and 1000 ng/ml of BMP5 treatment promote the expression of RPE progenitor genes.
# RNA expression of neural retina progenitor genes was quantified. 200 ng/ml and 1000 ng/ml of BMP5 treatment promote the expression of neural retina progenitor cell genes.
# The effect of BMP5 is compared to that of BMP4, BMP7 and BMP4/7 heterodimer.
# (§1) hESC-RPE monolayer differentiation hESC were plated at a cell density of 5.5×10^4 cells/cm2 on hrLN-332 laminin coated dishes at 10 μg/mL (Biolaminin 332 LN, Biolamina) using NutriStem hPSC XF medium. Rho-kinase inhibitor (Y-27632, Millipore) at a concentration of 10 μM was added during the first 24 hours, while cells were kept at 37° C., 5% CO2. After 24 hours, the culture medium was replaced with differentiation medium according to the examples. The differentiation media “GMEM” in the following examples is always supplemented with Penicillin-Streptomycin solution (20 units/ml; Thermo Fisher), beta-Mercaptoethanol (0.5 mM; Thermo Fisher), Sodium pyruvate (1 mM; Thermo Fisher), Non-Essential Amino Acids (1×; Thermo Fisher).
# We analyzed gene expression at day 21 on cells that were generated with the following protocol, […]
# hESC [2] = experiment: Differentiation of hESC into eye field progenitor cells, marker-positive cells by immunofluorescence; assay type: cell-based, human
# Source text: FIGS. 2A and 2B show the effect of human BMP5 and Activin A on the differentiation of hESC into VSX2 and MITF positive cells. Immunofluorescence showing conditions 1 and 2, without BMP5 or Activin A, with poor levels of MITF or VSX2. In contrast, the addition of BMP5 from day 12 (conditions 3 and 4), increase the number of cells positive for MITF and VSX2. The addition of Activin A from day 15, in combination with BMP5, has no clear additional effect. In contrast, the use of Activin A alone from day 12, or combination with BMP5 from day 15 (conditions 5 and 6), generates a lower number of cells positive for MITF and VSX2. […] The combination of IHH (Indian Hedgehog) and DKK2 (Dickkopf WNT Signaling Pathway Inhibitor 2) might help in the generation of MITF/VSX2 positive cells.
# An initial treatment with the small molecule GW788388, NOGGIN and Endo IWR1 for 12 days, followed by a treatment with BMP5, IHH and DKK2 generates high numbers of PAX6/OTX2 double positive cells addressed by immunofluorescence. DAPI is used for nuclear staining of all cells.
# The use of BMP5 induces the generation of MITF and VSX2 positive cells (second row), addressed by immunofluorescence, indicating the generation of neural retina progenitor cells. In contrast, the addition of the GSK3 inhibitor CHIR99021 (lower row) drastically blocks the expression of VSX2, and reinforces the expression of MITF and the generation of MITF positive cells with cobblestone morphology. This is indicative of RPE progenitor cells. First row, control without BMP5. DAPI is used for nuclear staining of all cells.
# as §1
# In order to differentiate hESC into eye progenitor cells, we tested the effect of BMP5 in different conditions in combination with small molecules and recombinant proteins that mimics developmental cues. We relied on sequential activation and/or repression of the common developmental pathways associated to eye development for our differentiation protocol and combined with activation of BMP pathway by BMP5. After cell dissociation, hESC line expanded on LN-521 were dissociated to single cells and seeded on LN-332 for differentiation. These cells adapted well to this laminin.
# We decided to explore the inhibition of GSK3 with the small molecule CHIR99021 in combination with BMP5, and to remove the WNT inhibitor Endo IWR1 from the protocol, as GSK3 inhibition might activate canonical (beta-Catenin dependent) WNT signalling.
# We decided to explore the effect of another SMAD inhibitor, RepSOX, in combination with NOGGIN, and to combine with BMP5 and CHIR99021 to obtain RPE progenitor cells positive for MITF. This will indicate if different SMAD inhibitors could be used in our BMP5-based protocol.
# hESC [3] = experiment: Protein expression of hESC-derived progenitor cells by flow cytometry; assay type: cell-based, human; settings: after 21 days, single SMAD inhibitor (GW788388)
# Procedure: More than 40% of the cells show co-expression of the markers PAX6/MITF.
# More than 50% of the cells show co-expression of the markers PAX6/VSX2.
# as §1
# In order to provide quantitative data of the cells generated with our BMP5-based protocol, we analysed the eye field progenitor cells generated under treatment with BMP5 for NR progenitor cells or with BMP5 and CHIR99021 for RPE progenitor cells by flow cytometry. Moreover, we tested single SMAD inhibition by removing NOGGIN from the protocol.
# [4] = system: human embryonic stem cells (hESC); experiment: Initial attachment of hESC on different laminins after single cell seeding (brightfield); assay type: cell-based; settings: after 12 hours; hESC grown and maintained on LN-521, single cell seeding
# Procedure: LN-332 can be used for further differentiation.
# An internally generated hESC line was maintained on human recombinant laminin (hrLN) coated plates (Biolaminin 521 LN, Biolamina) in NutriStem hPSC XF medium (Biological Industries), in a 5% CO2 incubator at 37° C. and passaged enzymatically at 1:10-1:20 ratio every 3-5 days. For passaging, confluent cultures were washed once with phosphate buffered saline (PBS) without calcium and magnesium ions and incubated for 5 min at 37° C. with TrypLE Select (GIBCO, Thermo Fisher Scientific). The enzyme was then carefully removed and the cells were collected in fresh NutriStem hPSC XF medium by gentle pipetting to obtain single cell suspension and the required volume plated on a freshly hrLN-521 coated dish. After passage, the medium was replaced with fresh prewarmed NutriStem hPSC XF medium and changed daily.
# hESC-RPE monolayer differentiation hESC were plated at a cell density of 5.5×10^4 cells/cm2 on hrLN-332 laminin coated dishes at 10 μg/mL (Biolaminin 332 LN, Biolamina) using NutriStem hPSC XF medium. Rho-kinase inhibitor (Y-27632, Millipore) at a concentration of 10 μM was added during the first 24 hours, while cells were kept at 37° C., 5% CO2. After 24 hours, the culture medium was replaced with differentiation medium according to the examples. […]
# [5] = Example 1, immunofluorescence, factor from day 12 after NOGGIN+GW788388+Endo IWR1, to day 21
molecule,measurement,setting,value
"BMP5: human bone morphogenetic protein 5, recombinant protein (R&D systems), SEQ ID NO: 1",best condition (BMP5 concentration) to induce eye field progenitor cells with a RPE progenitor cell identity,"hESC [1]; 0, 0.1, 200 and 1000 ng/ml tested, day 7-21, with CHIR99021 day 12-21, gene expression day 21",200 ng/mL
same,best condition (BMP5 concentration) to generate eye field progenitor cells with a NR progenitor cell identity,"hESC [1]; 0, 0.1, 200 and 1000 ng/ml tested, day 7-21, VSX2 gene expression day 21",200 ng/mL
same,effect on generation of eye field progenitor cells,hESC [1]; BMP5 at 1000 ng/ml,positive but milder effect
same,induction of gene expression of markers of eye field progenitor cells with a RPE progenitor cell identity,hESC [1],superior effect
same,"MITF, PAX6 and VSX2 mRNA levels","hESC [1]; day 21, CT values, compared to hESC",increased compared to hESC
same,generation of MITF and VSX2-positive cells,hESC [2]; [5],generated MITF and VSX2-positive cells
same,generation of MITF and VSX2-positive cells,"hESC [2]; Example 2, dual SMAD inhibition (NOGGIN+GW788388), BMP5 from day 7 to day 21",strongly generated MITF and VSX2-positive cells
same,generation of double PAX6/OTX2 positive cells,"hESC [2]; immunofluorescence, GW788388, NOGGIN and Endo IWR1 for 12 days, then BMP5, IHH and DKK2",induces the generation of double PAX6/OTX2 positive cells
same,PAX6-positive cells,hESC [3],more than 95%
same,double positive cells PAX6/VSX2,hESC [3],more than 50%
"LN-332: human recombinant laminin isoform 332 (Biolaminin 332 LN, Biolamina), coating matrix",initial attachment of hESC,[4],excellent attachment
B1,generation of MITF and VSX2-positive cells,hESC [2]; [5],not sufficient to generate MITF or VSX2-positive cells
B2,generation of MITF and VSX2-positive cells,hESC [2]; [5],negative effect
B3,induction of gene expression of markers of eye field progenitor cells with a RPE progenitor cell identity,hESC [1],least capacity to induce these markers
B4,induction of gene expression of markers of eye field progenitor cells with a RPE progenitor cell identity,hESC [1],better than BMP4
